Assay results: US20020169140A1, “Combination therapy for reduction of toxicity of chemotherapeutic agents” (priority 2001, published 2002)
Entries after “also recorded” stand apart in the source; their conditions may differ. One block for each molecule: values may come before it.

Legend:
[1] = test system: large cell lung cancer line LXFL 529L; test: Monolayer proliferation inhibition, modified propidium iodide assay; type: cell-based; settings: for In vitro activity (Test/Control %): 4 days exposure, median of 5 experiments; for tumour effects (words): circiliol alone at 3 μg/ml; for in vitro activity of the agent alone: single agent, stated for both cell lines
[2] = test system: lung adenocarcinoma cell line LXFA 526L; test: as above; type: cell-based; settings: for In vitro activity (Test/Control %): 4 days exposure, median of 5 experiments; for tumour effects (words): circiliol alone at 3 μg/ml; for in vitro activity of the agent alone: single agent, stated for both cell lines
[3] = LXFA 529L, 0 μg/ml circiliol, median of 2-5 experiments
[4] = LXFA 529L, +3 μg/ml circiliol, median of 2-5 experiments

Compound: COc1cc2oc(-c3ccc(O)c(O)c3)cc(=O)c2c(O)c1OC [Circiliol, 6,7-dimethoxy-5,3′4′-trihydroxyflavone]
In vitro activity (Test/Control %) ([1]; LXFA 529L, circiliol 3 μg/ml): 102% | In vitro activity (Test/Control %) ([1]; LXFA 529L, circiliol 30 μg/ml): 49% | In vitro activity (Test/Control %) ([1]; LXFA 529L, circiliol 300 μg/ml): 39% | tumour effects (words) [1]: inactive alone | tumour effects (words) ([1]; listed as circiliol): no tumour effects | inhibition of tumour growth in vitro ([1]; circiliol alone at 30 μg/ml): 50% | antitumour activity in vitro ([1]; circiliol alone at <3 μg/ml): no antitumour activity | in vitro activity of the agent alone [1]: only moderately active; also recorded: low activity | In vitro activity (Test/Control %) ([2]; LXFA 526L, circiliol 3 μg/ml): 93% | In vitro activity (Test/Control %) ([2]; LXFA 526L, circiliol 30 μg/ml): 53% | In vitro activity (Test/Control %) ([2]; LXFA 526L, circiliol 300 μg/ml): 55% | tumour effects (words) [2]: inactive alone | tumour effects (words) ([2]; listed as circiliol): no tumour effects | inhibition of tumour growth in vitro ([2]; circiliol alone at 30 μg/ml): 50% | antitumour activity in vitro ([2]; circiliol alone at <3 μg/ml): no antitumour activity | in vitro activity of the agent alone [2]: only moderately active; also recorded: low activity

IC50 of gemcitabine alone [1, 3]: 0.355 µg/mL | IC50 of gemcitabine in combination with circiliol [1, 4]: 0.039 µg/mL | IC50 ([1]; LXFL 529L, LXFA 529L, 0 μg/ml circiliol, median of 2-5 experiments, read-out: IC50 of gemcitabine alone): 0.36 µg/mL | IC50 ([2]; LXFA 526L, 0 μg/ml circiliol, median of 2-5 experiments, read-out: IC50 of gemcitabine alone): 0.63 µg/mL
Compound: Nc1ccn([C@@H]2O[C@H](CO)[C@@H](O)C2(F)F)c(=O)n1 [gemcitabine, 2′, 2′-diflouro-2′-deoxycytidine, reference compound]
IC70 of gemcitabine alone [1, 3]: 0.64 µg/mL | IC70 of gemcitabine in combination with circiliol [1, 4]: 0.076 µg/mL | fold increase of antitumour activity of gemcitabine (IC70 shift) ([1]; LXFA 529L, with 30 μg/ml circiliol): 19 fold | in vitro activity of the agent alone [1]: potently active | IC70 of gemcitabine alone ([2]; LXFA 526L, 0 μg/ml circiliol, median of 2-5 experiments): 5.6 µg/mL | IC70 of gemcitabine alone ([2]; LXFA 526L, 0 μg/ml circiliol, median of 2-5 experiments, listed as Gemcitabine): 5.7 µg/mL | IC70 of gemcitabine in combination with circiliol ([2]; LXFA 526L, +3 μg/ml circiliol, median of 2-5 experiments): 0.87 µg/mL | IC70 of gemcitabine in combination with circiliol ([2]; LXFA 526L, +30 μg/ml circiliol, median of 2-5 experiments): 0.58 µg/mL | fold increase of antitumour activity of gemcitabine (IC70 shift) ([2]; LXFA 526L, with 30 μg/ml circiliol): 10 fold | in vitro activity of the agent alone [2]: potently active
